In ChEMBL document CHEMBL1201862, “PubChem BioAssay data set” (2004) one finds IC50, EC50 and AC50 data, which are given here for 9 compounds.

Test [1] addresses T1, Orexin receptor type 2 (Homo sapiens, UniProt O43614).
T1 sequence (O43614 whole entry): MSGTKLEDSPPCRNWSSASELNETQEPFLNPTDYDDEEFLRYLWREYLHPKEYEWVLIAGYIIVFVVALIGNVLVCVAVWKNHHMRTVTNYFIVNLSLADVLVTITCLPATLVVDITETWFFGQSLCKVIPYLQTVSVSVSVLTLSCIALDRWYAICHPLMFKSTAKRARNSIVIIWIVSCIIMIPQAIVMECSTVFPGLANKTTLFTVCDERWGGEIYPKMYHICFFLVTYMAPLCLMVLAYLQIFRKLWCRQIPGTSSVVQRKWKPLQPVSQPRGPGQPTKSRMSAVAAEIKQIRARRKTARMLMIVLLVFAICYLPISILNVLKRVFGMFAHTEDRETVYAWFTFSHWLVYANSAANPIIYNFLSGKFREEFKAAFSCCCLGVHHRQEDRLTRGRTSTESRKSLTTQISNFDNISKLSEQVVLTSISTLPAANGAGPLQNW
Briefly: Counterscreen assay for antagonists of the orexin 1 receptor (OX1R; HCRTR1): Homogeneous Time Resolved Fluorescence (HTRF)-based cell-based dose response assay for antagonists of the orexin 2 receptor (OX2R; HCRTR2), run by assay provider. Type of test: functional.

Test [2] concerns the target T1, Orexin receptor type 2. The test can be described thus: Counterscreen assay for antagonists of the orexin 1 receptor (OX1R; HCRTR1): Fluorescence-based cell-based dose response assay for antagonists of the orexin 2 receptor (OX2R; HCRTR2), run by assay provider. Type of test: functional. Background: Counterscreens check selectivity or assay interference.
The subject of test [3] is CHO-K1. The test can be described thus: Counterscreen for antagonists of the orexin 1 receptor (OX1R; HCRTR1): Homogeneous time resolved fluorescence (HTRF)-based cell-based dose response assay to identify antagonists of the parental CHO-K1 cell line. [Related pubchem assays (depositor defined):AID434989, AID435008, AID463079, AID485270, AID492963, AID492964, AID492965, AID493232, AID504699, AID504701]. Type of test: functional. The settings on record: Cricetulus griseus.

For test [4], the target named is T2, Orexin/Hypocretin receptor type 1 (Homo sapiens, UniProt O43613).
T2 sequence (O43613 whole entry): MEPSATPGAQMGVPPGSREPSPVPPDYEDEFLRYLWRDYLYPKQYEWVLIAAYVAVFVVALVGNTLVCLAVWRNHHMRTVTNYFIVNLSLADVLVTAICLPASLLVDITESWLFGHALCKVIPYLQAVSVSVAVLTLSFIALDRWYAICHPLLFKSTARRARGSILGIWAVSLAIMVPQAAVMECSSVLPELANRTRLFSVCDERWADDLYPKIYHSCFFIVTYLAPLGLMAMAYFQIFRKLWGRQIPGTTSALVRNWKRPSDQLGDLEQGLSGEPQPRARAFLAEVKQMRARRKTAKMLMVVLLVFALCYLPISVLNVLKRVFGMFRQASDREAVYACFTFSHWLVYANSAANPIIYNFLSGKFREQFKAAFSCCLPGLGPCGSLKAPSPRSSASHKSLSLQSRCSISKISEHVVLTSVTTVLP
The test can be described thus: Homogeneous Time Resolved Fluorescence (HTRF)-based cell-based high throughput dose response assay for antagonists of the orexin 1 receptor (OX1R; HCRTR1). [Related pubchem assays (depositor defined):AID434989, AID435008, AID463079, AID485270, AID492963, AID492964, AID492965, AID493232, AID504717, AID504718]. In kind it is functional. (In general: TR-FRET usually uses a lanthanide donor and a delayed reading to cut background.)

Test [5] in a line: Counterscreen for antagonists of the orexin 1 receptor (OX1R; HCRTR1): Fluorescence-based cell-based high throughput dose response assay to identify antagonists of the parental CHO cell line. [Related pubchem assays (depositor defined):AID434989, AID435008, AID463079, AID485270, AID492963, AID492964, AID492965, AID493232, AID504699, AID504701]. In kind it is functional.
Test [6] in a line: cells.
Test [7] concerns the target T3, Oxysterols receptor LXR-beta (Homo sapiens, UniProt P55055).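 Also: Cell-based luminescence dose-response assay of agonist activity at LXR, run as a confirmatory counterscreen to a daf-12 agonist screen; HEK293 cells with Gal4-LXR fusion and GAL4-driven luciferase reporter; agonist potency from rising luciferase signal of a Gal4-LXR reporter.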
T3 sequence (P55055 whole entry): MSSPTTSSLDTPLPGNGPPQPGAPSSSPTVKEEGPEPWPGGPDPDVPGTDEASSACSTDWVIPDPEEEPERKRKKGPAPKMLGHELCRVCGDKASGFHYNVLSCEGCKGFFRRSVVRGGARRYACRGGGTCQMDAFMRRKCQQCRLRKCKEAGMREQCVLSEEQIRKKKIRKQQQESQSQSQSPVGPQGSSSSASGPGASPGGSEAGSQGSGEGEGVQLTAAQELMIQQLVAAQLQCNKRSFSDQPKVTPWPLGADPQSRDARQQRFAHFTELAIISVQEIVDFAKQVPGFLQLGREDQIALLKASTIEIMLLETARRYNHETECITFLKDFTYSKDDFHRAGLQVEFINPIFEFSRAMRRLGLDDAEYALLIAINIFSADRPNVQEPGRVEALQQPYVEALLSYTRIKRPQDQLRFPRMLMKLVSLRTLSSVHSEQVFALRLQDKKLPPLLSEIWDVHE
In kind it is functional, cell-based.

Test [8] concerns the target T2, Orexin/Hypocretin receptor type 1. Briefly: Fluorescence-based cell-based high throughput dose response assay for antagonists of the orexin 1 receptor (OX1R; HCRTR1). [Related pubchem assays (depositor defined):AID434989, AID435008, AID463079, AID485270, AID492963, AID492964, AID492965, AID493232, AID504717, AID504718]. Type of test: functional.
The target in test [9] is Caspase-6 (Homo sapiens, UniProt P55212). Briefly: human caspase-6 inhibitors, dose response, biochemical, VEID-R110 fluorescence, cherry-pick (AID 720632).
Sequence of Caspase-6 (P55212 24-179 limits assumed): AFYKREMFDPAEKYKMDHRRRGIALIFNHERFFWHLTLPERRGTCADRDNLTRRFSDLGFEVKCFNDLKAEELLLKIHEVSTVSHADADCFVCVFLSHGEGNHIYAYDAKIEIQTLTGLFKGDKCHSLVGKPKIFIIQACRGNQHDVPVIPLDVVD
Sequence of Caspase-6 (P55212 194-293 limits assumed): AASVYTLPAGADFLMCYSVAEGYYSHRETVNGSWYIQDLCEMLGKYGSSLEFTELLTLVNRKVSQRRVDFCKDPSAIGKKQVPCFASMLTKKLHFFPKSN
Test [10] addresses T4, Zinc finger protein mex-5 (Caenorhabditis elegans, UniProt Q9XUB2).
T4 sequence (Q9XUB2 whole entry): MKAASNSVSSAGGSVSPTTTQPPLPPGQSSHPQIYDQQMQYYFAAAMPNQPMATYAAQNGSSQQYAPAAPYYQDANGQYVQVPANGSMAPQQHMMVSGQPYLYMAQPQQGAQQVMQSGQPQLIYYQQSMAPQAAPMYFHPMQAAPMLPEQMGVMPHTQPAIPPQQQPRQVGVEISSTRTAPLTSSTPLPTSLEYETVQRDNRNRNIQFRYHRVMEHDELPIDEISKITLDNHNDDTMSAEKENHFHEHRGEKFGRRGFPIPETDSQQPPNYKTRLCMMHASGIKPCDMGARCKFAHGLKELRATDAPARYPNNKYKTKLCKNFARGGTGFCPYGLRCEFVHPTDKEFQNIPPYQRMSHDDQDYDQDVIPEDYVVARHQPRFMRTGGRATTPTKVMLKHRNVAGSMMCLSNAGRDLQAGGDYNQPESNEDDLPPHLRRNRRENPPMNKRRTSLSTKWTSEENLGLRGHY
The test can be described thus: MEX-5/TCR-2 RNA interaction inhibitors, dose response, biochemical, C. elegans, fluorescence polarization (AID 1960). A general note: Fluorescence polarisation rises when a labelled molecule tumbles more slowly, as on binding a larger partner.

Test [11] concerns the target T5, RNA-binding protein pos-1 (Caenorhabditis elegans, UniProt G5EF15).
T5 sequence (G5EF15 whole entry): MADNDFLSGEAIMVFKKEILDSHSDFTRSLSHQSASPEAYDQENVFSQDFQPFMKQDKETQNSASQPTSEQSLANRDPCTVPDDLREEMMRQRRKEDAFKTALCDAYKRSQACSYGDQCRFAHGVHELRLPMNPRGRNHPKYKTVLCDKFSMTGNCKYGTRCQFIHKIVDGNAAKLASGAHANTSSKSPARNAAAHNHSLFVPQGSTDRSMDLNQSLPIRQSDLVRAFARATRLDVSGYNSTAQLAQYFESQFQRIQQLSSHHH
Briefly: inhibitors of POS-1/mex-3 RNA binding, dose response, biochemical, fluorescence polarization (AID 1964).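 Also: purified POS-1 fused to maltose binding protein made in E. coli; potency of compounds blocking POS-1 binding to fluorescent RNA.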

The nature of test [12]: A cytotoxicity screen of small molecule inhibitors of the PhoP region in Salmonella typhi identified in the primary screen. [Related pubchem assays: 1850, 1864, 1985 ]. Type of test: functional.
The target of test [13] is Kallikrein-7 (Homo sapiens, UniProt P49862). Briefly: Fluorescence Intensity-based biochemical primary high throughput dose response assay to identify activators of kallikrein-7 (K7) zymogen.
Sequence of Kallikrein-7 (P49862 whole entry): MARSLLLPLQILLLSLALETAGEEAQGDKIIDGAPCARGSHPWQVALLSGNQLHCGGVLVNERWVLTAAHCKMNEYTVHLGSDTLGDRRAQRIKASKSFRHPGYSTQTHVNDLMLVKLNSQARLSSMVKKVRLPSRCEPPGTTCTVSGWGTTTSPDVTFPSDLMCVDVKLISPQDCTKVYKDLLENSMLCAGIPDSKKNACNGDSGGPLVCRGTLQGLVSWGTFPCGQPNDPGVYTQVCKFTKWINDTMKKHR
Test [14] addresses Prothrombin (Homo sapiens, UniProt P00734). Briefly: Thrombin 1536 HTS Dose Response Confirmation. [Related pubchem assays: 1046 (Thrombin 1536 HTS; hits were confirmed in this assay)]. Type of test: functional.
The nature of test [15]: LGR2 antagonists, dose response, cell-based, HEK293, CRE-luciferase reporter, cherry pick, set 2 (AID 743343).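 Also: transfected cells were stimulated with diluted bursicon conditioned medium after compound addition.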 Type of test: functional.
Test [16] in a line: MC4R antagonists, dose response, counter-screen for LGR2 antagonist project, cell-based, plate reader, cherry pick (AID 743444).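 Also: transfected HEK 293 cells stimulated with alpha-MSH peptide; potency of inhibitors of the alpha-MSH evoked signal.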 In kind it is functional.
The nature of test [17]: cytotoxicity in COV434 cells, dose response, cytotoxicity control for PAX8 inhibitor project, cell-based, plate reader, dry powder, SA7 (AID 743145). In kind it is functional.
Test [18] in a line: cytotoxicity in COV362 ovarian cancer cells, dose response, cytotoxicity control for PAX8 inhibitor project, cell-based, plate reader, dry powder, SA12 (AID 743144). Type of test: functional.
Test [19] is described as follows: IGROV1 ovarian cancer cell cytotoxicity, dose response, PAX8 inhibitor project, plate reader, dry powder samples (AID 743043). The conditions noted are these: IGROV-1. In kind it is functional, cell-based.
The nature of test [20]: PAX2 cell-based inhibition, dose response, selectivity assay for PAX8 inhibitor project, plate reader, dry powder samples (AID 743048).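 Also: HEK293 cells carrying a WT1 promoter luciferase reporter driven by expressed Pax2; potency is for inhibition of Pax2 driven reporter signal.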 In kind it is functional.
Test [21] in a line: A2780 ovarian cancer cell cytotoxicity, dose response, cytotoxicity control, plate reader, dry powder samples (AID 743046). In kind it is functional, cell-based.
A short description of test [22]: T. cruzi intracellular amastigote growth inhibition, dose response, imaging, CA-I/72 strain, bovine embryo skeletal muscle, dry powder (AID 651885). Type of test: functional, cell-based.

The IC50 is the concentration at which inhibition is half-maximal. In general, EC50 refers to the concentration giving half of the maximal effect. As a reminder, the AC50 is the concentration giving half of the maximal activity seen.

The source made the active and inactive calls. Some results are limits rather than exact numbers.

In the case of `Nn1c(-c2cccs2)nc2sc3c(c2c1=O)CCCC3`, the IC50 in [1] was > 50 µM (inactive); in test [2], 31.2 µM (inactive); in test [3] it was > 66.2 µM (inactive); in test [4], 2.98 µM (active); in [5] it was > 49.7 µM (inactive); in test [8], 18.1 µM (inactive). The EC50 in [6] and in [7] was > 67.5 µM (inactive) each time.
Regarding `CCOc1cc(N2CCOCC2)c(OCC)cc1NC(C)C(=O)N1CCN(CC)CC1` (stereo not given), the concentration at half-maximal activity (AC50) in [9] was 46.7 µM (active). The EC50 in test [10] is > 300 µM (inconclusive); in test [11], 82.7 µM (active).
`Cc1cc(N=Nc2ccc(C)c(N=Nc3cc(C)c(N)cc3N)c2)c(N)cc1N`: the values for the EC50 in [6], in test [12] and in [7] were > 67.5 µM (inactive), > 50 µM (active) and > 67.5 µM (inactive), respectively.
For `CCOc1ccccc1NC(=O)Cc1cccs1`, the AC50 in test [9] was 16.7 µM (active).
Regarding `CC(=O)Nc1cc2c3c(cccc3c1)-c1ccccc1-2`, the EC50 in test [13] was 8.84 µM (active).
Turning to `CCC(=O)n1nc(-c2ccc(Cl)cc2)nc1NCc1ccccc1`, in test [14], the 50% inhibitory concentration (IC50) is 1.75 µM (active).
Turning to `O=C(NCCc1ccccc1)c1ccc2c(c1)OCO2`, the AC50 in test [15] was 2.31 µM (active); in test [16], 2.88 µM (active).
As to `N#C[C@H]1[C@@H](c2ccc(C#Cc3cccc(F)c3)cc2)[C@@H](CO)N1C(=O)C1CCCC1`, the AC50 in [17] is > 70 µM (inactive); in test [18] it was > 70 µM (inactive); in [19], 10.6 µM (active); in [20] it was > 70 µM (inactive); in test [21], 17.6 µM (active).
Take `C[C@@H]1CN([C@@H](C)CO)C(=O)c2cccc(NC(=O)c3ccncc3)c2O[C@H]1CN(C)Cc1ccc(C(F)(F)F)cc1`: in [22], the IC50 is 10 µM (inconclusive).
